From patent publication US20260022114A1, “N-(5-SUBSTITUTED-[(1,3,4-THIADIAZOLYL) OR (1,3-THIAZOLYL)](SUBSTITUTED)CARBOXAMIDE COMPOUNDS, PHARMACEUTICAL COMPOSITIONS, AND METHODS OF PREPARING THE AMIDE COMPOUNDS AND OF THEIR USE” (Repare Therapeutics Inc., priority 2022, published 2026)

Molecular target: PolQ ATPase enzyme (1-894) (Homo sapiens (Human), UniProt O75417)
Assay: Polθ ATPase enzymatic assay (0.5 nM enzyme concentration), ADP-Glo
Type: biochemical
Conditions: 0.5 nM PolQ ATPase enzyme (1-894); average IC50
Method: PolQ ATPase enzyme (1-894) at 0.5 nM is incubated with a 10-point concentration response of inhibitors for 15 min at rt in the following buffer: 50 mM Tris Cl pH 7.5, 10% glycerol, 5 mM DTT, 10 mM MgCl2, 0.1 mg/ml BSA. Following pre-incubation with inhibitors, DNA (Fork C) at 20 nM and ATP at 100 μM are added to start the reaction. Enzymatic reaction proceeds at rt for 180 min. ATP consumption is measured using the ADP-Glo assay from Promega. Luminescence is read on the Envision and IC50 are determined using the variable slope 4-parameters equation.
Oligos are annealed by heating at 95° C. for 5 min in the following buffer (10 mM Tris-HCl PH7.5, 50 mM NaCl, 1 mM EDTA) and cooled to rt. […]

PolQ ATPase enzyme (1-894), sequence (O75417 1-894): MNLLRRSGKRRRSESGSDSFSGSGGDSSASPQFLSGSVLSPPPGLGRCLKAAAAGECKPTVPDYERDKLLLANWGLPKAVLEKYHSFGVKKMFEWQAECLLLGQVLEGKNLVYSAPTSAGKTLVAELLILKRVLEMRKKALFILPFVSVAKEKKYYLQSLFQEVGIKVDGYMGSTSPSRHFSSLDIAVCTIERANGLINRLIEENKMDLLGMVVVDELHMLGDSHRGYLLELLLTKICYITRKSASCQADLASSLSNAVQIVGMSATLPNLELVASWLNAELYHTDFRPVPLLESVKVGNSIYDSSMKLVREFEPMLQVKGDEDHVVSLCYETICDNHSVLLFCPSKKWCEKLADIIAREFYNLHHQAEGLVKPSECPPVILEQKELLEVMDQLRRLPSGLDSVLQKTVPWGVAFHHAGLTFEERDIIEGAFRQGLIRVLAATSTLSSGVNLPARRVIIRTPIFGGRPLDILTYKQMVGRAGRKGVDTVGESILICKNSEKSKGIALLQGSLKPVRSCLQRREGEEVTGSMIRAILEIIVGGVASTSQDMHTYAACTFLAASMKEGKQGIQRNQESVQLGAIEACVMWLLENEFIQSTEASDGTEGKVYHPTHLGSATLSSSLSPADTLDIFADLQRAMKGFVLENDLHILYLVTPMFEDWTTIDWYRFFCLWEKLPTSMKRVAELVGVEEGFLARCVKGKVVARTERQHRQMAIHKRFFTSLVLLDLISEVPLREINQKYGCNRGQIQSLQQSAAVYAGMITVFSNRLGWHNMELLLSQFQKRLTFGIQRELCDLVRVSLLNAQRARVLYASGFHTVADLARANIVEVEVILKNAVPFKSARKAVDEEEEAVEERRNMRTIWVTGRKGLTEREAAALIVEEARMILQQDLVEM

Row | Structure (SMILES) | IC50 [nM]
1 | C#C[C@H]1C[C@@H]1c1nnc(NC(=O)c2cnc(Oc3cc(Cl)ccn3)cc2-c2cc(C(F)F)ncc2OC)s1 [Compound 577] | < 0.25
2 | COc1cnc(C(F)F)cc1-c1cc(C#CCN2CCCCC2)ncc1C(=O)Nc1nnc(C#CC2CC2)s1 [Compound 589] | 0.7
3 | COc1cnc(C(F)F)cc1-c1cc(N2CC3CC(C3)C2=O)ncc1C(=O)Nc1nnc(C#CC2CC2)s1 (racemic) [Compound 381] | < 0.25
4 | C#C[C@H]1C[C@@H]1c1nnc(NC(=O)c2cnc(-n3cccc(Cl)c3=O)cc2-c2cc(C(F)F)ncc2OC)s1 [Compound 591] | < 0.25
5 | COc1cnc(C(F)F)cc1-c1cc(-n2ccc(N3CC4(COC4)C3)cc2=O)ncc1C(=O)Nc1nnc(C#CC2CC2)s1 [Compound 613] | 0.35
6 | COc1cnc(C(F)F)cc1-c1cc(C#CCC(C)(C)O)ncc1C(=O)Nc1nnc([C@@H]2C[C@H]2c2ccn(C)n2)s1 [Compound 630] | 8.5
7 | COc1cnc(C(F)F)cc1-c1cc(C#CCC(C)(C)O)ncc1C(=O)Nc1nnc([C@H]2C[C@@H]2c2ccn(C)n2)s1 [Compound 631] | 0.93
8 | COc1cnc(C(F)F)cc1-c1cc(-n2ccc(CO)cc2=O)ncc1C(=O)Nc1nnc(C#CC2CC2)s1 [Compound 490] | < 0.25
9 | COc1cnc(C(F)F)cc1-c1cc(N2CC3CC3CC2=O)ncc1C(=O)Nc1nnc(C#CC2CC2)s1 (racemic) [Compound 388] | < 0.25
10 | COc1cnc(C(F)F)cc1-c1cc(N2CCN(C)CC2=O)ccc1C(=O)Nc1ncc(C#CC2CC2)s1 [Compound 217] | 1.9
11 | COc1cnc(C(F)F)cc1-c1cc(-n2ccc(C(N)=O)cc2=O)ncc1C(=O)Nc1nnc(C#CC2CC2)s1 [Compound 492] | < 0.25
12 | COc1cnc(C(F)F)cc1-c1cc(-n2ccc(C)cc2=O)ncc1C(=O)Nc1nnc([C@H]2C[C@@H]2C(F)F)s1 [Compound 623] | < 0.25
13 | COc1cnc(Cl)cc1-c1cnccc1C(=O)Nc1nnc(C2C[C@H]2c2ccc(C#N)c(C)c2)s1 (stereo partly drawn) [Compound 287] | 0.93
14 | COc1cnc(C(F)F)cc1-c1cc(-n2ccc(C)cc2=O)ncc1C(=O)Nc1nnc(COc2cnn(C)c2)s1 [Compound 621] | 6.3
15 | C#C[C@H]1C[C@@H]1c1nnc(NC(=O)c2cnc(N3CCN(C)C4(CC4)C3=O)cc2-c2cc(C(F)F)ncc2OC)s1 [Compound 574] | 1.1
16 | COc1cnc(C(F)F)cc1-c1cc(C#CC(C)(C)O)ncc1C(=O)Nc1nnc([C@H]2C[C@@H]2C)s1 (racemic) [Compound 619] | 4.9
17 | COc1cnc(C(F)F)cc1-c1cc(C#CCN2CCNC2=O)ncc1C(=O)Nc1nnc(C#CC2CC2)s1 [Compound 559] | < 0.25
18 | C#C[C@H]1CC1c1nnc(NC(=O)c2cnc(N3CCOC4(CC4)C3=O)cc2-c2cc(C(F)F)ncc2OC)s1 (single isomer, unassigned) [Compound 588] | 0.75
19 | COc1cnc(C(F)F)cc1-c1cc(C#CCN2CCOCC2)ncc1C(=O)Nc1nnc([C@H]2C[C@@H]2C)s1 (racemic) [Compound 606] | 4

Row | Structure (SMILES) | IC50 [nM]
20 | COc1cnc(C(F)F)cc1-c1cc(C2C[C@@H]2C(=O)N(C)C)ccc1C(=O)Nc1nnc(C#CC2CC2)s1 (mixture of isomers) [Compound 362] | 1.4
21 | COc1cnc(C(F)F)cc1-c1cc(N2CCC(C(C)(C)C)CC2=O)ncc1C(=O)Nc1nnc(C#CC2CC2)s1 (racemic) [Compound 444] | < 0.25
22 | COc1cnc(C(F)F)cc1-c1cc(N2CCCCS2(=O)=O)ncc1C(=O)Nc1nnc(C#CC2CC2)s1 [Compound 521] | 15
23 | COc1cnc(C(F)F)cc1-c1cc(-n2ccc(C)cc2=O)ncc1C(=O)Nc1nnc(C#CC2CCOCC2)s1 [Compound 487] | < 0.25
24 | COc1ccc(C(F)(F)F)cc1-c1cnccc1C(=O)Nc1nnc(C2C[C@H]2c2ccc(C#N)cc2)s1 (stereo partly drawn) [Compound 30] | 0.76
25 | C#C[C@@H]1CC1c1nnc(NC(=O)c2ccc(N3CCOCC3=O)cc2-c2cc(C(F)F)ncc2OC)s1 (stereo partly drawn) [Compound 177] | 0.39
26 | COc1cnc(C(F)F)cc1-c1cc(-n2ccc(N(C)C3COC3)cc2=O)ncc1C(=O)Nc1nnc(C#CC2CC2)s1 [Compound 614] | 0.4
27 | COc1cnc(C(F)F)cc1-c1cc(C#CCN2CCOCC2)ncc1C(=O)Nc1nnc([C@H]2C[C@@H]2c2cscn2)s1 (racemic) [Compound 634, 2′-(difluoromethyl)-5′-methoxy-6-(3-morpholinoprop-1-yn-1-yl)-N-(5-((1S,2S)-2-(thiazol-4-yl)cyclopropyl)-1,3,4-thiadiazol-2-yl)-[4,4′-bipyridine]-3-carboxamide] | 0.86
28 | CCOC(=O)N1CCN(c2cc(-c3cc(C(F)F)ncc3OC)c(C(=O)Nc3nnc(C#CC4CC4)s3)cn2)C(=O)C12CC2 [Compound 564] | 0.38
29 | COc1cnc(C(F)F)cc1-c1cc(-n2ccc(C)cc2=O)ncc1C(=O)Nc1nnc([C@H]2C[C@@H]2C#N)s1 (racemic) [Compound 539] | 33.3
30 | COc1cc(C)ncc1-c1cc(-c2cc(C(F)F)ncc2OC)c(C(=O)Nc2nnc(C#CC3CC3)s2)cn1 [Compound 489] | 0.4
31 | COc1cnc(C(F)F)cc1-c1cc(C#CCN2C[C@@H](C)O[C@@H](C)C2)ncc1C(=O)Nc1nnc(C#CC2CC2)s1 [Compound 529] | 0.59
32 | COc1cnc(C(F)F)cc1-c1cc(C#CCN2CCN(C)CC2)ncc1C(=O)Nc1nnc(C#CC2CC2)s1 [Compound 540] | 1
33 | COc1cnc(C(F)F)cc1-c1cc(-n2ccc(C)cc2=O)ncc1C(=O)Nc1nnc([C@H]2C[C@@H]2c2ccnn2C)s1 (racemic) [Compound 582] | 1.3
34 | C#C[C@@H]1CC1c1nnc(NC(=O)c2cnc(-n3ccc(C)cc3=O)cc2-c2cc(C(F)F)ncc2OC)s1 (single isomer, unassigned) [Compound 480] | 1.7
35 | COc1cnc(C(F)F)cc1-c1cc(N2CCC(C)CCC2=O)ncc1C(=O)Nc1nnc(C#CC2CC2)s1 (racemic) [Compound 485] | 0.7
36 | COc1cnc(C(F)F)cc1-c1cc(N(C)c2nnc(C)o2)ccc1C(=O)Nc1nnc(C#CC2CC2)s1 [Compound 118, N-(5-(cyclopropylethynyl)-1,3,4-thiadiazol-2-yl)-2-(2-(difluoromethyl)-5-methoxypyridin-4-yl)-4-(methyl (5-methyl-1,3,4-oxadiazol-2-yl)amino)benzamide] | 0.99
37 | COc1cnc(C(F)F)cc1-c1cc(-n2ccc(C)cc2=O)ncc1C(=O)Nc1nnc(C2CC2(F)Cl)s1 (racemic) [Compound 605] | 4
38 | COc1cnc(C(F)F)cc1-c1cc(CC2CCOCC2)ncc1C(=O)Nc1nnc(C#CC2CC2)s1 [Compound 267] | 6.4

Row | Structure (SMILES) | IC50 [nM]
39 | COc1cnc(C(F)F)cc1-c1cc(-n2ccc(OC3CCN(C)CC3)cc2=O)ncc1C(=O)Nc1nnc(C#CC2CC2)s1 [Compound 611] | 1.2
40 | COc1cnc(C(F)F)cc1-c1cc(Cn2ccccc2=O)ncc1C(=O)Nc1nnc(C#CC2CC2)s1 [Compound 507] | 1.5
41 | COc1cnc(C(F)F)cc1-c1cc(-n2ccc(C)cc2=O)ncc1C(=O)Nc1nnc([C@H]2C[C@@H]2c2ccccn2)s1 (racemic) [Compound 592] | 0.48
42 | COc1cnc(C(F)F)cc1-c1cc(C#CCC(C)(C)O)ncc1C(=O)Nc1nnc([C@H]2C[C@@H]2c2ccn(C)n2)s1 (racemic) [Compound 622] | 1.4
43 | COc1cnc(C(F)F)cc1-c1c(C(=O)Nc2nnc(C#CC3CC3)s2)ccc(-c2ccn(C)n2)c1F [Compound 385] | 0.87
44 | C#C[C@H]1C[C@@H]1c1nnc(NC(=O)c2cnc(-n3cccc(C(F)(F)F)c3=O)cc2-c2cc(C(F)F)ncc2OC)s1 [Compound 575] | 0.32
45 | COc1cnc(C(F)F)cc1-c1cc(C#CCNCC(F)(F)F)ncc1C(=O)Nc1nnc(C#CC2CC2)s1 [Compound 558] | < 0.25
46 | C#C[C@H]1CC1c1nnc(NC(=O)c2ccc(-c3nnc(C)o3)cc2-c2cc(C(F)F)ncc2OC)s1 (mixture of isomers) [Compound 373] | 4.6
47 | COc1cncc(-c2cc(-c3cc(C(F)F)ncc3OC)c(C(=O)Nc3nnc(C#CC4CC4)s3)cn2)c1 [Compound 525] | 1.3
48 | COc1cnc(C(F)F)cc1-c1cc(N2C[C@@H](C)OCC2=O)ncc1C(=O)Nc1nnc(C#CC2CC2)s1 [Compound 502] | 2.4
49 | COc1cnc(C(F)F)cc1-c1cc(-n2ccc(N3CCOCC3)cc2=O)ncc1C(=O)Nc1nnc(C#CC2CC2)s1 [Compound 522] | < 0.25
50 | C#C[C@H]1C[C@@H]1c1nnc(NC(=O)c2cnc(-n3cccc(C)c3=O)cc2-c2cc(C(F)F)ncc2OC)s1 [Compound 547] | < 0.25
51 | COc1cnc(C(F)F)cc1-c1cc(C#CCN2CCCC2)ncc1C(=O)Nc1nnc(C#CC2CC2)s1 [Compound 600] | 0.6
52 | COc1cnc(C(F)F)cc1-c1cc(C2C[C@H]2C(=O)N(C)C)ccc1C(=O)Nc1nnc(C#CC2CC2)s1 (mixture of isomers) [Compound 363] | < 0.25
53 | COc1cnc(C(F)F)cc1-c1cc(N2CCN(C=O)C3(CC3)C2=O)ncc1C(=O)Nc1nnc(C#CC2CC2)s1 [Compound 520] | 0.27
54 | C#C[C@H]1C[C@@H]1c1nnc(NC(=O)c2cnc(-n3ccc(OC4CCN(C)C4)cc3=O)cc2-c2cc(C(F)F)ncc2OC)s1 (single isomer, unassigned) [Compound 626] | 3.5
55 | C#C[C@@H]1CC1c1nnc(NC(=O)c2cnc(-n3ccc(C)cc3=O)cc2-c2cc(C(F)F)ncc2OC)s1 (mixture of isomers) [Compound 593] | 9.9
56 | C#Cc1nnc(NC(=O)c2cnc(-n3ccc(C)cc3=O)cc2-c2cc(C(F)F)ncc2OC)s1 [Compound 518] | 1.4
57 | C#C[C@H]1CC1c1nnc(NC(=O)c2cnc(-n3ncc(C)cc3=O)cc2-c2cc(C(F)F)ncc2OC)s1 (single isomer, unassigned) [Compound 632] | 0.35
